Data from PubChem BioAssay (NCI).
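The compound was tested at five concentrations on cells cultured in 96-well plates, with a 48-hour exposure period. The concentration for 50% growth inhibition is given as GI50. TGI: total growth inhibition.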

Experiments:
Assay in all cases: NCI-60 cell line screen, 48 h
[1] = tested on: A498 renal
[2] = tested on: A549 NSCLC
[3] = tested on: ACHN renal
[4] = tested on: CCRF-CEM leukemia
[5] = tested on: EKVX NSCLC
[6] = tested on: HCC-2998 colon
[7] = tested on: HCT-15 colon
[8] = tested on: HL-60(TB) leukemia
[9] = tested on: HOP-62 NSCLC
[10] = tested on: HOP-92 NSCLC
[11] = tested on: HS 578T breast
[12] = tested on: HT29 colon
[13] = tested on: IGROV1 ovarian
[14] = tested on: K-562 leukemia
[15] = tested on: KM12 colon
[16] = tested on: M14 melanoma
[17] = tested on: MALME-3M melanoma
[18] = tested on: MCF7 breast
[19] = tested on: MDA-MB-435
[20] = tested on: MOLT-4 leukemia
[21] = tested on: NCI-H23 lung
[22] = tested on: NCI-H460 lung
[23] = tested on: NCI-H522 lung
[24] = tested on: NCI/ADR-RES ovarian
[25] = tested on: OVCAR-3 ovarian
[26] = tested on: OVCAR-4 ovarian
[27] = tested on: OVCAR-5 ovarian
[28] = tested on: OVCAR-8 ovarian
[29] = tested on: PC-3 prostate
[30] = tested on: RPMI-8226 leukemia
[31] = tested on: SF-268 CNS
[32] = tested on: SF-295 CNS
[33] = tested on: SF-539 CNS
[34] = tested on: SK-MEL-2 melanoma
[35] = tested on: SK-MEL-28 melanoma
[36] = tested on: SK-OV-3 ovarian
[37] = tested on: SNB-19 CNS
[38] = tested on: SNB-75 CNS
[39] = tested on: SR leukemia
[40] = tested on: SW-620 colon
[41] = tested on: TK-10 renal
[42] = tested on: U251 CNS
[43] = tested on: UACC-257 melanoma
[44] = tested on: UACC-62 melanoma
[45] = tested on: UO-31 renal
[46] = tested on: 786-0 renal
[47] = tested on: BT-549 breast
[48] = tested on: CAKI-1 renal
[49] = tested on: COLO 205 colon
[50] = tested on: DU-145 prostate
[51] = tested on: HCT-116 colon
[52] = tested on: LOX IMVI melanoma
[53] = tested on: MDA-MB-231 breast
[54] = tested on: NCI-H226 lung
[55] = tested on: RXF 393 renal
[56] = tested on: SK-MEL-5 melanoma
[57] = tested on: SN12C renal

CC(C)C1OC(=O)/C=C/C=C/C=C/C=C/C=C/CC(O)C(C)C(O)CC(O)CC(O)CC(O)CC(O)CC(O)CC(O)/C=C/C1C (stereo unspecified)
TGI [1]: > 100000 nM | TGI [2]: > 100000 nM | TGI [3]: > 100000 nM | GI50 [4]: 5110 nM | TGI [4]: > 100000 nM | TGI [5]: > 100000 nM | TGI [6]: > 100000 nM | TGI [7]: > 100000 nM | GI50 [8]: 2130 nM | TGI [9]: > 100000 nM | TGI [10]: > 100000 nM | TGI [11]: > 100000 nM | TGI [12]: > 100000 nM | TGI [13]: > 100000 nM | TGI [14]: > 100000 nM | TGI [15]: > 100000 nM | TGI [16]: > 100000 nM | TGI [17]: > 100000 nM | TGI [18]: > 100000 nM | TGI [19]: > 100000 nM | TGI [20]: > 100000 nM | TGI [21]: > 100000 nM | TGI [22]: > 100000 nM | TGI [23]: > 100000 nM | TGI [24]: > 100000 nM | TGI [25]: > 100000 nM | TGI [26]: > 100000 nM | TGI [27]: > 100000 nM | TGI [28]: > 100000 nM | TGI [29]: > 100000 nM | TGI [30]: > 100000 nM | TGI [31]: > 100000 nM | TGI [32]: > 100000 nM | TGI [33]: > 100000 nM | TGI [34]: > 100000 nM | TGI [35]: > 100000 nM | TGI [36]: > 100000 nM | TGI [37]: > 100000 nM | TGI [38]: > 100000 nM | TGI [39]: > 100000 nM | TGI [40]: > 100000 nM | TGI [41]: > 100000 nM | TGI [42]: > 100000 nM | TGI [43]: > 100000 nM | TGI [44]: > 100000 nM | TGI [45]: > 100000 nM

CCCCCCNc1nc(N2CCOCC2)c2[nH]c(NCCCCCC)nc2n1
GI50 [46]: 1800 nM | TGI [46]: 3190 nM | GI50 [1]: 1110 nM | TGI [1]: 2310 nM | GI50 [2]: 1690 nM | TGI [2]: 3380 nM | GI50 [3]: 1600 nM | TGI [3]: 2950 nM | GI50 [47]: 1660 nM | TGI [47]: 3040 nM | GI50 [48]: 1530 nM | TGI [48]: 2970 nM | GI50 [49]: 1890 nM | TGI [49]: 3600 nM | GI50 [50]: 1510 nM | TGI [50]: 2830 nM | GI50 [6]: 1700 nM | TGI [6]: 3070 nM | GI50 [51]: 1830 nM | TGI [51]: 3270 nM | GI50 [7]: 1640 nM | TGI [7]: 3220 nM | GI50 [9]: 1670 nM | TGI [9]: 3270 nM | GI50 [11]: 1370 nM | TGI [11]: 3160 nM | GI50 [15]: 1670 nM | TGI [15]: 3060 nM | GI50 [52]: 1480 nM | TGI [52]: 2800 nM | GI50 [16]: 1840 nM | TGI [16]: 3390 nM | GI50 [53]: 1810 nM | TGI [53]: 3300 nM | GI50 [54]: 1700 nM | TGI [54]: 4000 nM | GI50 [21]: 1350 nM | TGI [21]: 2630 nM | GI50 [22]: 1550 nM | TGI [22]: 2970 nM | GI50 [23]: 1580 nM | TGI [23]: 3370 nM | GI50 [24]: 1590 nM | TGI [24]: 2970 nM | GI50 [25]: 1760 nM | TGI [25]: 3140 nM | GI50 [26]: 1430 nM | TGI [26]: 2870 nM | GI50 [27]: 1610 nM | TGI [27]: 2960 nM | GI50 [28]: 1770 nM | TGI [28]: 3740 nM | GI50 [29]: 1680 nM | TGI [29]: 3540 nM | GI50 [30]: 1910 nM | TGI [30]: 5420 nM | GI50 [55]: 1360 nM | TGI [55]: 2670 nM | GI50 [31]: 1780 nM | TGI [31]: 3440 nM | GI50 [32]: 1650 nM | TGI [32]: 3210 nM | GI50 [33]: 1820 nM | TGI [33]: 3330 nM | GI50 [34]: 1890 nM | TGI [34]: 3510 nM | GI50 [35]: 1650 nM | TGI [35]: 3010 nM | GI50 [56]: 1420 nM | TGI [56]: 2720 nM | GI50 [36]: 1730 nM | TGI [36]: 3140 nM | GI50 [57]: 1760 nM | TGI [57]: 3320 nM | GI50 [37]: 1800 nM | TGI [37]: 3410 nM | GI50 [38]: 1460 nM | TGI [38]: 2770 nM | GI50 [40]: 1440 nM | TGI [40]: 2760 nM | GI50 [41]: 1870 nM | TGI [41]: 3450 nM | GI50 [42]: 1610 nM | TGI [42]: 3180 nM | GI50 [43]: 1620 nM | TGI [43]: 3160 nM | GI50 [44]: 1630 nM | TGI [44]: 3120 nM | GI50 [45]: 1360 nM | TGI [45]: 2840 nM
